Earlier results as cited in patent publication US20140023701A1, “Method and Composition for Ameliorating the Effects tor a Subject Exposed to Radiation or Other Sources of Oxidative Stress” (priority 2011, published 2014).
Read-outs that look alike come from different tables or passages of the source.

Tests used:
Human [1] = tested on: Human
Human [2] = tested on: Human; remark: listed apart in the source
[3] = tolerable upper intake level, daily intake
[4] = no observed adverse event level, most sensitive subgroup

Molecule	Human UL (19-70 yo group) (Human [1]; [3])	Human NOAEL (Human [2]; human)	Human UL (19-70 yo group) (Human [1])	Human NOAEL (Human [2]; [4])
Vitamin E	1490 IU	1200 IU		
Cc1ncc(CO)c(CO)c1O.Cl [Vitamin B6, pyridoxine hydrochloride]		200 mg	100 mg	
[Mg] [Magnesium]	350 mg			700 mg
Copper			10 mg	9 mg
cyanocobalamin [Vitamin B12]				3 mg
O=C(O)CCCC[C@@H]1SC[C@@H]2NC(=O)N[C@@H]21 [Biotin]				2.5 mg
C=C1CC[C@H](O)C/C1=C/C=C1\CCC[C@]2(C)[C@@H]([C@H](C)CCCC(C)C)CC[C@@H]12 [Vitamin D, cholecalciferol]				800 IU
[Mo] [Molybdenum]	2 mg			0.35 mg
[Mn+2] [Manganese]			11 mg	10 mg
Zinc			40 mg	30 mg
Vitamin A		10,000 IU	10,000 U	
[Ca] [Calcium]			2500 mg	1500 mg
chromium polynicotinate				1 mg
CC(C)(CO)[C@@H](O)C(=O)NCCC(=O)O [Pantothenic acid, d-calcium pantothenate]				1000 mg
O=C(O)c1cccnc1 [Niacin, inositol hexanicotinate]	35 mg			
Nc1nc2ncc(CNc3ccc(C(=O)N[C@@H](CCC(=O)O)C(=O)O)cc3)nc2c(=O)[nH]1 [Folate, folic acid]				1 mg
CC1=C(C/C=C(\C)CCC[C@H](C)CCC[C@H](C)CCCC(C)C)C(=O)c2ccccc2C1=O [Vitamin K, phytonadione]		0.03 mg		
O=C1O[C@H]([C@@H](O)CO)C(O)=C1O [Vitamin C, ascorbic acid]				>1000 mg
